Results taken from US10231956B2, “3-(1H-pyrrolo[3,2-C]pyridin-2-YL)-1 H-pyrazolo[4,3-B]pyridines and therapeutic uses thereof” (Samumed, LLC, priority 2015, dated 2019).

Columns and labels:
Format in all cases: cell-based
[1] = test system: Wnt activity (Sp5-Luc reporter, SW480 colon carcinoma cells); assay: Sp5-Luc reporter gene screening assay for Wnt activity in SW480 cells; settings: Homo sapiens; for inhibition at 10 µM: given for EC50 >10 μM, read-out: percent inhibition at 10 μM; for EC50: luminescence, overnight incubation
Summary of the method: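 SW480 cells stably transduced with an Sp5 promoter (eight TCF/LEF sites)–firefly luciferase lentiviral reporter, plated at 4,000 cells/well in 1% FBS medium with compounds (10-point 1:3 series from 10 μM, 0.1% DMSO) overnight at 37 °C. BrightGlo luminescence normalised to DMSO; EC50 by four-parameter fit, else % inhibition at 10 μM.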

[2] = test system: primary human mesenchymal stem cells (hMSCs); assay: Induction of chondrogenesis in primary human mesenchymal stem cells (nodule count); settings: 144 h, 6 days; for Emax: TGF-β3 10 ng/mL as positive control, read-out: Max. Activity as % TGF-β3 activity; for EC50: concentration required to induce 50% levels of chondrogenesis vs TGF-β3, read-out: Conc (nM) of 50% TGF-β3 activity
Protocol: Representative compounds were screened using primary human mesenchymal stem cells (hMSCs) to determine their ability to induce chondrogenesis (process by which cartilage is developed).
Human Mesenchymal Stem Cell Culture: Primary human mesenchymal stem cells (hMSCs) were purchased from Lonza (Walkersville, Md.) and expanded in Mesenchymal Stem Cell Growth Media (Lonza). Cells between passage 3 and 6 were used for the experiments.
Compound Screening: Each compound was dissolved in DMSO as a 10 mM stock and used to prepare compound source plates. Serial dilution (1:3, 6-point dose-response curves from 2700 nM to 10 nM) and compound transfer was performed using the ECHO 550 (Labcyte, Sunnyvale, Calif.) into 96-well clear bottom assay plates (Greiner Bio-One) with appropriate DMSO backfill for a final DMSO concentration of 0.03%. hMSCs were plated at 20,000 cells/well in 250 μL/well Incomplete Chondrogenic Induction Medium (Lonza; DMEM, dexamethasone, ascorbate, insulin-transferrin-selenium [ITS supplement], gentamycin-amphotericin [GA-1000], sodium pyruvate, proline and L-glutamine). TGF-β3 (10 ng/mL) was used as a positive control for differentiation while negative control wells were treated with 75 nL DMSO for normalization and calculating EC50 values. Cells were incubated at 37° C. and 5% CO2 for 6 days. To image chondrogenic nodules, the cells were fixed using 4% formaldehyde (Electron Microscopy Sciences), and stained with 2 μg/mL Rhodamine B (Sigma-Aldrich) and 20 μM Nile Red (Sigma-Aldrich) [Johnson K., et. al, A Stem Cell-Based Approach to Cartilage Repair, Science, (2012), 336(6082), 717-721]. The nodules imaged (4 images per well at 4× magnification) by excitation at 531 nm and emission at 625 nm and quantified using the CellInsight CX5 (Thermo Scientific). Number of nodules in each well was normalized to the average of 3 DMSO treated wells on the same plate using Excel (Microsoft Inc.). The normalized averages (fold change over DMSO) of 3 replicate wells for each compound concentration were calculated. Due to solubility limitations of some of the compounds, curve fitting was incomplete leading to inaccurate EC50 determinations.
Using TGF-β3 as a positive control, the concentration of representative compounds required to induce 50% levels of chondrogenesis is reported. In addition, the maximum activity of each compound and the respective dose that each compound reached maximum chondrogenesis activity is reported.

IL-6 = IL-6 inhibition in LPS-stimulated THP-1 cells (HTRF); settings: Homo sapiens; for EC50: LPS 500 ng/mL, 22 hours, IL6 HTRF; for inhibition at 10 µM: given for EC50 >10 μM, LPS, IL6, 10 μM, read-out: percent inhibition at 10 μM

Structure (SMILES)	inhibition at 10 µM [1] [%]	EC50 [1] [nM]	Emax [2] [%]	EC50 [2] [nM]	EC50 (IL-6) [nM]	inhibition at 10 µM (IL-6) [%]
CS(=O)(=O)NCc1cc(F)cc(-c2nccc3[nH]c(-c4n[nH]c5ccc(-c6cncc(NC(=O)Cc7ccccc7)c6)nc45)cc23)c1 [Compound 486, N-(5-(3-(4-(3-Fluoro-5-(methylsulfonamidomethyl)phenyl)-1H-pyrrolo[3,2-c]pyridin-2-yl)-1H-pyrazolo[4,3-b]pyridin-5-yl)pyridin-3-yl)-2-phenylacetamide]	19.3	> 10000	110	10	> 10000	28.5
CS(=O)(=O)NCc1cc(F)cc(-c2nccc3[nH]c(-c4n[nH]c5ccc(-c6cncc(NC(=O)C7CCCC7)c6)nc45)cc23)c1 [Compound 498, N-(5-(3-(4-(3-Fluoro-5-(methylsulfonamidomethyl)phenyl)-1H-pyrrolo[3,2-c]pyridin-2-yl)-1H-pyrazolo[4,3-b]pyridin-5-yl)pyridin-3-yl)cyclopentanecarboxamide]		1310	50	900	162	
CS(=O)(=O)NCc1cc(F)cc(-c2nccc3[nH]c(-c4n[nH]c5ccc(-c6cncc(NC(=O)C7CCCCC7)c6)nc45)cc23)c1 [Compound 499, N-(5-(3-(4-(3-Fluoro-5-(methylsulfonamidomethyl)phenyl)-1H-pyrrolo[3,2-c]pyridin-2-yl)-1H-pyrazolo[4,3-b]pyridin-5-yl)pyridin-3-yl)cyclohexanecarboxamide]		1140	50	10	542	
CS(=O)(=O)NCc1cc(F)cc(-c2nccc3[nH]c(-c4n[nH]c5ccc(-c6cncc(CN7CCC(F)(F)C7)c6)nc45)cc23)c1 [Compound 502, N-(3-(2-(5-(5-((3,3-Difluoropyrrolidin-1-yl)methyl)pyridin-3-yl)-1H-pyrazolo[4,3-b]pyridin-3-yl)-1H-pyrrolo[3,2-c]pyridin-4-yl)-5-fluorobenzyl) methanesulfonamide]		502	148	10	349	
CS(=O)(=O)NCc1cc(F)cc(-c2nccc3[nH]c(-c4n[nH]c5ccc(-c6cncnc6)nc45)cc23)c1 [Compound 503, N-(3-Fluoro-5-(2-(5-(pyrimidin-5-yl)-1H-pyrazolo[4,3-b]pyridin-3-yl)-1H-pyrrolo [3,2-c]pyridin-4-yl)benzyl)methanesulfonamide]		745	51	2700	> 10000	7.6
CS(=O)(=O)NCc1cc(F)cc(-c2nccc3[nH]c(-c4n[nH]c5ccc(-c6ccccn6)nc45)cc23)c1 [Compound 504, N-(3-Fluoro-5-(2-(5-(pyridin-2-yl)-1H-pyrazolo[4,3-b]pyridin-3-yl)-1H-pyrrolo[3,2-c]pyridin-4-yl)benzyl)methanesulfonamide]		2140	24		> 10000	0
Fc1ccc(-c2nccc3[nH]c(-c4n[nH]c5ccc(-c6cncc(OC7CCNCC7)c6)nc45)cc23)cc1 [Compound 528, 3-(4-(4-Fluorophenyl)-1H-pyrrolo[3,2-c]pyridin-2-yl)-5-(5-(piperidin-4-yloxy)pyridin-3-yl)-1H-pyrazolo[4,3-b]pyridine]		3830	54	10	724	
Fc1ccccc1-c1nccc2[nH]c(-c3n[nH]c4ccc(-c5cn[nH]c5)nc34)cc12 [Compound 539, 3-(4-(2-Fluorophenyl)-1H-pyrrolo[3,2-c]pyridin-2-yl)-5-(1H-pyrazol-4-yl)-1H-pyrazolo[4,3-b]pyridine]		590	174	100	103	
Cc1ncc(-c2ccc3[nH]nc(-c4cc5c(-c6ccncc6)nccc5[nH]4)c3n2)n1C [Compound 573, 5-(1,2-Dimethyl-1H-imidazol-5-yl)-3-(4-(pyridin-4-yl)-1H-pyrrolo[3,2-c]pyridin-2-yl)-1H-pyrazolo[4,3-b]pyridine]		100	104	30	> 10000	0
c1cc2[nH]c(-c3n[nH]c4ccc(-c5cncc(OC6CCCCC6)c5)nc34)cc2c(N2CCCCC2)n1 [Compound 607, 5-(5-(Cyclohexyloxy)pyridin-3-yl)-3-(4-(piperidin-1-yl)-1H-pyrrolo[3,2-c]pyridin-2-yl)-1H-pyrazolo[4,3-b]pyridine]		2660	163	10	1790	
O=C(CC1CCNCC1)Nc1cncc(-c2ccc3[nH]nc(-c4cc5c(N6CCCCC6)nccc5[nH]4)c3n2)c1 [Compound 609, N-(5-(3-(4-(Piperidin-1-yl)-1H-pyrrolo[3,2-c]pyridin-2-yl)-1H-pyrazolo[4,3-b]pyridin-5-yl)pyridin-3-yl)-2-(piperidin-4-yl)acetamide]	13.3	> 10000	22		2950	
c1cc2[nH]c(-c3n[nH]c4ccc(-c5cncc(OCCN6CCCC6)c5)nc34)cc2cn1 [Compound 658, 5-(5-(2-(Pyrrolidin-1-yl)ethoxy)pyridin-3-yl)-3-(1H-pyrrolo[3,2-c]pyridin-2-yl)-1H-pyrazolo[4,3-b]pyridine]		3910	23		1070	
